Measurements reported in ChEMBL document CHEMBL5113374, “Research progress in biological activities of isochroman derivatives” (Eur J Med Chem, 2021).
Values after ≈ are worked out from the molar mass of the structure shown.

Assays:
Rattus norvegicus [1] = test: Antisecretory activity in Sprague-Dawley rat assessed as inhibition of gastric acid accumulation at 20 mg/kg,ID; format: functional
L5178Y = test: Cytotoxicity against […] assessed as inhibition of cell viability at 10 ug/ml; format: functional; settings: Mus musculus
Mus musculus [2] = species on record: Mus musculus; test: Analgesic activity in acetic acid induced mouse assessed as assessed as reduction in acetic acid induced writhing […]; format: functional, organism-based
Mus musculus [3] = test: Analgesic activity in po dosed phenylquinone induced mouse assessed as assessed as reduction in phenylquinone induced writhing; format: functional
Rattus norvegicus [4] = test: Anti-ulcerative activity in aspirin induced Sprague-Dawley rat ulcer model assessed as inhibition of ulcer index at 20 mg/kg,po; format: functional
Lasiodiplodia theobromae = test: Antifungal activity against Lasiodiplodia theobromae assessed as fungal growth inhibition at 100 ug/ml incubated for 4 days by disk method; format: functional; settings: 96 h, time 4 day
Rattus norvegicus [5] = species on record: Rattus norvegicus; test: Antiallergic activity in Wistar rat abdominal cavity assessed as inhibition of C48/80-induced histamine release at 0.0005 M incubated for 30 mins by OPT-fluorophore based spectrofluorometric analysis; format: functional; settings: 0.5 h
Homo sapiens = species on record: Homo sapiens; test: Selectivity index, ratio of IC50 for […] (unknown origin)
Acetylcholinesterase [6] = biological target: T1, Acetylcholinesterase (Homo sapiens, UniProt P22303); test: Inhibition of AChE (unknown origin) using acetylthiocholine iodide as substrate incubated for 10 mins by DTNB reagent based Ellman's method
[7] = biological target: Glutamate NMDA receptor (Rattus norvegicus) (UniProt P35439+Q00959+Q00960+Q00961+Q62645+Q8VHN2+Q9R1M7); test: Displacement of 3H-(+)-MK 801 from NMDA receptor in rat brain incubated for 80 mins by liquid scintillation counting method; format: tissue-based; settings: filed as antagonist
[8] = biological target: Sigma intracellular receptor 2 (Rattus norvegicus, UniProt Q5U3Y7); test: Displacement of [3H]DTG from sigma 2 receptor in Sprague-Dawley rat liver membranes measured after 120 mins by liquid scintillation counting method; format: cell membranes, Membrane
DNA topoisomerase 2 = DNA topoisomerase 2 (Drosophila melanogaster, UniProt P15348); test: Inhibition of Drosophila topoisomerase II assessed as relaxation of supercoiled plasmid pBR322 DNA incubated for 30 mins by ethidium bromide staining based agarose gel electrophoresis
DNA gyrase [9] = biological target: T2, DNA gyrase (Escherichia coli, UniProt P0AES4+P0AES6); test: Inhibition of Escherichia coli DNA gyrase assessed as inhibition of relaxation of supercoiled plasmid pBR322 DNA incubated for 2 hrs by ethidium bromide/bromophenol blue staining based agarose gel electrophoresis analysis; format: protein-complex assay
DNA gyrase [10] = biological target: T2, DNA gyrase; test: Inhibition of Escherichia coli DNA gyrase supercoiling activity using pBR322 DNA as substrate incubated for 2 hrs by ethidium bromide/bromophenol blue staining based agarose gel electrophoresis analysis; format: protein-complex assay
NCI-H460 = test: Antiproliferative activity against human NCI-H460 assessed as cell growth inhibition at 100 uM by SRB assay based spectrophotometric analysis; format: functional
[11] = biological target: Sigma non-opioid intracellular receptor 1 (Cavia porcellus, UniProt Q60492); test: Displacement of [3H](+)-pentazocine from sigma 1 receptor in guinea pig brain membranes measured after 150 mins by liquid scintillation counting method; format: cell membranes, Membrane
[12] = Selectivity index, ratio of Ki for displacement of [3H]-(+)-pentazocine from sigma1 receptor in guinea pig brain membrane to Ki for displacement of [3H]DTG from sigma 2 receptor in Sprague-Dawley rat liver membranes; format: cell membranes
HL-60 = test: Cytotoxicity against human HL-60 cells; format: functional, cell-based
Oocyte [13] = test: Antagonist activity at human dopamine D4 receptor polymorphic variant 4 expressed in Xenopus laevis oocytes at 1 uM incubated for 2 mins; format: cell-based; settings: filed as antagonist
Oocyte [14] = test: Antagonist activity at human dopamine D4 receptor polymorphic variant 2 expressed in Xenopus laevis oocytes at 1 uM incubated for 2 mins; format: cell-based; settings: filed as antagonist
Oocyte [15] = test: Antagonist activity at human dopamine D4 receptor polymorphic variant 7 expressed in Xenopus laevis oocytes at 1 uM incubated for 2 mins; format: cell-based
Aspergillus flavus = test: Antifungal activity against Aspergillus flavus assessed as fungal growth inhibition incubated for 1 hrs by disk diffusion assay; format: functional
Klebsiella pneumoniae = test: Antibacterial activity against Klebsiella pneumoniae assessed as bacterial growth inhibition incubated for 24 hrs by disk diffusion assay; format: functional
Pseudomonas aeruginosa = test: Antibacterial activity against Pseudomonas aeruginosa ATTC-27853 assessed as bacterial growth inhibition incubated for 24 hrs by disk diffusion assay; format: functional
Talaromyces marneffei = test: Antifungal activity against Penicillium marneffei assessed as fungal growth inhibition incubated for 1 hrs by disk diffusion assay; format: functional
[16] = tested on: Trichophyton mentagrophytes; test: Antifungal activity against Trichophyton mentagrophytes assessed as fungal growth inhibition incubated for 1 hrs by disk diffusion assay; format: functional
Staphylococcus aureus = test: Antibacterial activity against Staphylococcus aureus ATTC-25923 assessed as bacterial growth inhibition incubated for 24 hrs by disk diffusion assay; format: functional
Escherichia coli = test: Antibacterial activity against Escherichia coli ATTC-25922 assessed as bacterial growth inhibition incubated for 24 hrs by disk diffusion assay; format: functional
Aspergillus fumigatus = test: Antifungal activity against Aspergillus fumigatus assessed as fungal growth inhibition incubated for 1 hrs by disk diffusion assay; format: functional
Acetylcholinesterase [17] = biological target: T1, Acetylcholinesterase; test: Inhibition of AChE in human erythrocytes using acetylthiocholine iodide as substrate at 50 uM incubated for 20 mins by DTNB reagent based Ellman's method; format: cell-based; settings: Erythrocyte
[18] = biological target: 5-hydroxytryptamine receptor 1B (Homo sapiens, UniProt P28222); test: Displacement of [3H]serotonin from recombinant human 5-HT1B receptor expressed in HEK293 cells incubated for 1 hr by competitive radioligand binding assay based; format: cell-based
D(4) dopamine receptor = D(4) dopamine receptor (Homo sapiens, UniProt P21917); test: Displacement of spiperone from human dopamine D4 receptor expressed in CHO cell membrane incubated for 1 hr by competitive radioligand binding assay based; format: cell membranes
D(1A) dopamine receptor = D(1A) dopamine receptor (Sus scrofa, UniProt P50130); test: Displacement of [3H]SCH-23390 from porcine striatum dopamine D1 receptor incubated for 30 mins by radioligand competition binding assay based scintillation counter analysis; format: tissue-based
[19] = Displacement of [3H]SCH-23390 from porcine striatum dopamine D2 receptor incubated for 30 mins by radioligand competition binding assay based scintillation counter analysis; format: tissue-based, Sus scrofa
KB = test: Antiproliferative activity against human KB cells assessed as cell growth inhibition incubated for 48 hrs by coulter counter method; format: functional; settings: read-out: ID50 (the source's name)
[20] = biological target: Beta-1 adrenergic receptor (Rattus norvegicus) (UniProt P18090); test: Antagonist activity against beta1 adrenoceptor in Sprague-Dawley rat incubated for 5 mins; settings: filed as antagonist
[21] = Antioxidant activity assessed as Ferric ion reducing activity by FRAP assay based HPLC analysis; format: functional
[22] = Antioxidant activity assessed as hydroxy radical scavenging activity by HPLC analysis; format: functional
[23] = Antioxidant activity assessed as DPPH radical scavenging activity by HPLC analysis; format: functional

T1 sequence (P22303 whole entry): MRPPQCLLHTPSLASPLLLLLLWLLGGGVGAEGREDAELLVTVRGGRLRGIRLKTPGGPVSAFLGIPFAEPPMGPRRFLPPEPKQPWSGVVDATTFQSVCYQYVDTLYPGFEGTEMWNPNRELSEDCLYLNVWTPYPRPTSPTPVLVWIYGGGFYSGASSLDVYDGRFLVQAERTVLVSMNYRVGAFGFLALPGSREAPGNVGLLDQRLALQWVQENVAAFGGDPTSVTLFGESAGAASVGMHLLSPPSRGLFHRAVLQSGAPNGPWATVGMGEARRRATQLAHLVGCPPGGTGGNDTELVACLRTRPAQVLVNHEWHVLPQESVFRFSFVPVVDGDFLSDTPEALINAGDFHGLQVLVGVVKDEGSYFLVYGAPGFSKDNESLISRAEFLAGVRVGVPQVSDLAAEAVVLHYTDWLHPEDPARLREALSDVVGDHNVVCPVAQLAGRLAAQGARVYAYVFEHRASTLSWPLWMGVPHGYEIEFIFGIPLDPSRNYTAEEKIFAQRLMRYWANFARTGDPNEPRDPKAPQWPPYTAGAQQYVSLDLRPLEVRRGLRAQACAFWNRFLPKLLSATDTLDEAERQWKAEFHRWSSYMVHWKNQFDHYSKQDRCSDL
Sequence of 5-hydroxytryptamine receptor 1B (P28222 whole entry): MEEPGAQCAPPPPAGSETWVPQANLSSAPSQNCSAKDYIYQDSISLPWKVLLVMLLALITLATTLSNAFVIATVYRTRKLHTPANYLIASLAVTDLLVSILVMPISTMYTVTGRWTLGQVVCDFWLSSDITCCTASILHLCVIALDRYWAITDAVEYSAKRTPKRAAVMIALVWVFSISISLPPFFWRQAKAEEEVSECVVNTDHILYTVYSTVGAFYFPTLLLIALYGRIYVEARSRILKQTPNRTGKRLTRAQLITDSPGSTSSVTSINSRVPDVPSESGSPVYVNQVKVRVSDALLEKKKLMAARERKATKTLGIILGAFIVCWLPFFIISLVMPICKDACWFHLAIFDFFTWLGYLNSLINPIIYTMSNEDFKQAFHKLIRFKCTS
Sequence of Sigma intracellular receptor 2 (Q5U3Y7 whole entry): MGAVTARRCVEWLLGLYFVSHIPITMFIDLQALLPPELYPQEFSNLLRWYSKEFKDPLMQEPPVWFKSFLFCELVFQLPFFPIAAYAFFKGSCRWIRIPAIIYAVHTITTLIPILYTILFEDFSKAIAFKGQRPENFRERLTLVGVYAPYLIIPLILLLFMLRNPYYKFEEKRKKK
Sequence of DNA topoisomerase 2 (P15348 whole entry): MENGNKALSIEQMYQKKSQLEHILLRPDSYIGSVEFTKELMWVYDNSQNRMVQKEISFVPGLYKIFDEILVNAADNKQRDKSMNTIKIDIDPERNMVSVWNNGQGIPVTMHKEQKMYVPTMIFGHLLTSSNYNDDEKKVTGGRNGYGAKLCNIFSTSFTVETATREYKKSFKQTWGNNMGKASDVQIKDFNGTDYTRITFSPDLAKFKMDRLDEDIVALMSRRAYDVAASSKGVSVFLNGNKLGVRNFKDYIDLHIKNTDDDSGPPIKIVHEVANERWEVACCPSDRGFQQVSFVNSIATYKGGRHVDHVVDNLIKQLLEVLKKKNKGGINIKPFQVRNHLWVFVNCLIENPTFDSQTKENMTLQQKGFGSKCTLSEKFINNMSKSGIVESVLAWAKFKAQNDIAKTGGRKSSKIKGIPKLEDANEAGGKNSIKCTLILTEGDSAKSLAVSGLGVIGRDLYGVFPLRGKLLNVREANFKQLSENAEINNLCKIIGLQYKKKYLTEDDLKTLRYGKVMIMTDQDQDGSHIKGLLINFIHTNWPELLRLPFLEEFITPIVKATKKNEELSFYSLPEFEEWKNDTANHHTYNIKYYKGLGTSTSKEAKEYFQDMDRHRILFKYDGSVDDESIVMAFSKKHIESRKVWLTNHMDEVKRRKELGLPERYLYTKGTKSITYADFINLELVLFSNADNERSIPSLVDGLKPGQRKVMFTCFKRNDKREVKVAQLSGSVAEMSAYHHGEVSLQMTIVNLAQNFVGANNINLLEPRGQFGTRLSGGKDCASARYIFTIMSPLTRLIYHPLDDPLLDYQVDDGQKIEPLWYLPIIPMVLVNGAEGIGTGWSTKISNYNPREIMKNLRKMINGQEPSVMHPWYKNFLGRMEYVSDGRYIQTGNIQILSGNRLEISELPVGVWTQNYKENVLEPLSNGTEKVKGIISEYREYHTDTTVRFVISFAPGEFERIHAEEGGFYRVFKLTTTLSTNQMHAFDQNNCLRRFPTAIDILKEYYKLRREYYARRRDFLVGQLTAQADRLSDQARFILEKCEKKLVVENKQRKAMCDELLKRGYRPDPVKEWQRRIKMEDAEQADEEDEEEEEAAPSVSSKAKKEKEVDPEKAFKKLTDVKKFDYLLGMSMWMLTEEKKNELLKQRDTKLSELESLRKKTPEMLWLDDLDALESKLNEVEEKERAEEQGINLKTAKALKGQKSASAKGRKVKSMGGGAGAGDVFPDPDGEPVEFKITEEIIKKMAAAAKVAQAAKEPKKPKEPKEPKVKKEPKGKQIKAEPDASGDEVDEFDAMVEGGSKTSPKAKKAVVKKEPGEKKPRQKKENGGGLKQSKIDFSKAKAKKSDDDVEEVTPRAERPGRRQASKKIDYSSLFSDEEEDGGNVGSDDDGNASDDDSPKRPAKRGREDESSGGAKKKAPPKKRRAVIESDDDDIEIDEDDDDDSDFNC
Sequence of D(1A) dopamine receptor (P50130 whole entry): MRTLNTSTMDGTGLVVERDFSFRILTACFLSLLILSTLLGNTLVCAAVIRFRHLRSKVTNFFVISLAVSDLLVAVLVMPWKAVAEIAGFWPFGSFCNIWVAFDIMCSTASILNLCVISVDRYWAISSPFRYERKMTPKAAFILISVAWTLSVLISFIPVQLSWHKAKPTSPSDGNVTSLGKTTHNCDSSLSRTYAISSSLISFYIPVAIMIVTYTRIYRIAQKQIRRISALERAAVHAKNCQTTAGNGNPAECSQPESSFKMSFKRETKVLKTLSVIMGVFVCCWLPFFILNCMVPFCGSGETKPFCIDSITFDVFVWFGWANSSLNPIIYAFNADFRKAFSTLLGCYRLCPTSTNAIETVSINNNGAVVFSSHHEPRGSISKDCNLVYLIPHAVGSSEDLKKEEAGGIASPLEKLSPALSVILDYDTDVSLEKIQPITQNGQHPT
Sequence of Sigma non-opioid intracellular receptor 1 (Q60492 whole entry): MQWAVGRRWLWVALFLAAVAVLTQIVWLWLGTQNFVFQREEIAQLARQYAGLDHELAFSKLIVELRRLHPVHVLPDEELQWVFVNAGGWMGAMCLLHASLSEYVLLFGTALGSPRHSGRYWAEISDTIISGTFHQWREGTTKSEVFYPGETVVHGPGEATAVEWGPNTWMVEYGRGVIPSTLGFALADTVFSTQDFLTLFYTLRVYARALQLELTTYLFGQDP
Sequence of D(4) dopamine receptor (P21917 whole entry): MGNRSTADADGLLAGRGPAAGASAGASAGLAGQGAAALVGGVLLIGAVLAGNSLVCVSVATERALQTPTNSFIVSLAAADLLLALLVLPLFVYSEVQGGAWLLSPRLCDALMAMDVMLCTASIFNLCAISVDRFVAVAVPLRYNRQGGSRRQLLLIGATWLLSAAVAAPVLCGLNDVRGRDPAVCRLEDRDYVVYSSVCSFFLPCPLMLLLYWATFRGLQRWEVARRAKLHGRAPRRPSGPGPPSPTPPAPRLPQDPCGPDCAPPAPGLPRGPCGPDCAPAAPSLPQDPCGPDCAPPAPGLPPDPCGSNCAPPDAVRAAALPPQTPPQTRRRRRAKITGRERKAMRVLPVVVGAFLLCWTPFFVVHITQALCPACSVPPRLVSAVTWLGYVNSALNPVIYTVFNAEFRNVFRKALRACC
Sequence of Beta-1 adrenergic receptor (Rattus norvegicus) (P18090 whole entry, looked up): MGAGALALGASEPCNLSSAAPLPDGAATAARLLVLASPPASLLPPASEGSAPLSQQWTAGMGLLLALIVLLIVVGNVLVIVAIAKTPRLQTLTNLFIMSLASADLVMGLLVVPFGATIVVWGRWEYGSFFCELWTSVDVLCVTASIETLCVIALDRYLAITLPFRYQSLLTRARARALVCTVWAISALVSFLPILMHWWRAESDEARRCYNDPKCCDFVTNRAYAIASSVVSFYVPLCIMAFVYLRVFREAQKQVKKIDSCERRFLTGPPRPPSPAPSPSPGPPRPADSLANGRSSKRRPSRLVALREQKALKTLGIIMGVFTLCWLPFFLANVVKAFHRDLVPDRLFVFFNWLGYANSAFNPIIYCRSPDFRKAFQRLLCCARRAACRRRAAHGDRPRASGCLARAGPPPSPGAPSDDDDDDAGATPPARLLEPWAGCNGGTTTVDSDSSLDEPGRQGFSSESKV

CC(C)NC(C)CC1OCCc2ccccc21 (stereo unspecified)
inhibition in vivo at 20 mg/kg (Rattus norvegicus [1]): 61%

COc1cc(O)cc2c1CO[C@@H](C)C2
inhibition at 10 µg/mL (L5178Y): 16.1%

COC(=O)[C@]1(C)Cc2cc(OC)c(OC)cc2C2(CCN(C)CC2)O1.Cl
EC50 (Mus musculus [2]): 44 mg/kg

CN1CCC2(CC1)COCc1ccccc12
ED50 (Mus musculus [3]): 12 mg/kg

CC(CC1CCCc2ccccc21)NCC(C)c1ccccc1 (stereo unspecified)
inhibition in vivo at 20 mg/kg (Rattus norvegicus [1]): 71.3% | inhibition in vivo at 20 mg/kg (Rattus norvegicus [4]): 3.2%

CCOC1OC(C)Cc2c(C)c(O)cc(OC)c21 (stereo unspecified)
inhibition at 100 µg/mL (Lasiodiplodia theobromae): 74%

O=C1OCC2(CCN(Cc3ccccc3)CC2)c2ccccc21
ED50 (Mus musculus [3]): 100 mg/kg | inhibition in vivo at 500 µM (Rattus norvegicus [5]): 31%

COc1cc2c(cc1OC)C(=O)/C(=C/c1cc[n+](Cc3ccc(F)cc3)cc1)OC2
Ratio IC50 (Homo sapiens): > 5000 | IC50 (Acetylcholinesterase [6]): 0.00015 µM

COc1cc2c(cc1OC)C1CN(C)CC(C2)O1 (stereo unspecified)
Activity [7]: 95% | EC50 (Mus musculus [2]): 77 mg/kg

c1ccc(CCN2CCC3(CC2)COCc2ccccc23)cc1
ED50 (Mus musculus [3]): 54 mg/kg | inhibition in vivo at 500 µM (Rattus norvegicus [5]): 96%

N#CC1Cc2ccccc2C2(CCN(Cc3ccccc3)CC2)O1 (stereo unspecified)
Ki [8]: 1.59 µM

CCCCCCC[C@H]1Cc2cc(O)c(C(=O)O)c(O)c2[C@@H](O)O1
IC50 (DNA topoisomerase 2): 3.08 µM | IC50 (DNA gyrase [9]): 27.7 µM | IC50 (DNA gyrase [10]): 18.5 µM

COC(=O)Cc1cc2c(cc1C(=O)c1ccc(N)cc1)OCO2
inhibition at 100 µM (NCI-H460): 4%

COC1Cc2ccccc2C2(CCN(CCc3ccccc3)CC2)O1 (stereo unspecified)
Ki [11]: 0.00207 µM | Ratio Ki [12]: 148

COc1cc(O)c(C)c2c1CO[C@@H](C)C2
inhibition at 10 µg/mL (L5178Y): 3.4%

Cc1c(O)cc(O)c2c1[C@H](C)[C@@H](C)O[C@@H]2c1ccc(O)cc1
IC50 (HL-60): 22.7 µg/mL (≈ 75.6 µM)

COc1ccc(N2CCN(CC[C@@H]3O[C@@H](C)Cc4cc(OC)c(OC)cc43)CC2)cc1
inhibition (Oocyte [13]): 46% | inhibition (Oocyte [14]): 66% | inhibition (Oocyte [15]): 33%

COc1cccc(Nc2nnc(C3(C)OCCc4cc(OC)c(OC)c(OC)c43)s2)c1 (stereo unspecified)
MIC (Aspergillus flavus): 6.25 µg/mL (≈ 14.1 µM) | MIC (Klebsiella pneumoniae): 6.25 µg/mL (≈ 14.1 µM) | MIC (Pseudomonas aeruginosa): 6.25 µg/mL (≈ 14.1 µM) | MIC (Talaromyces marneffei): 6.25 µg/mL (≈ 14.1 µM) | MIC [16]: 6.25 µg/mL (≈ 14.1 µM) | MIC (Staphylococcus aureus): 6.25 µg/mL (≈ 14.1 µM) | MIC (Escherichia coli): 6.25 µg/mL (≈ 14.1 µM) | MIC (Aspergillus fumigatus): 6.25 µg/mL (≈ 14.1 µM)

COC1(C)Cc2c(C=O)c(O)c(Cc3c(O)c(C=O)c4c(c3O)COC(C)=C4)c(O)c2CO1 (stereo unspecified)
inhibition (Acetylcholinesterase [17]): 55%

CNC(=O)c1ccc2c(c1)CCO[C@H]2CCN1CCN(c2ccc(OC)cc2)CC1
Ki [18]: 5.78 µM | Ki (D(4) dopamine receptor): 3.7 µM

COc1cc2c(c(OC)c1OC)C(C)(c1n[nH]c(=S)n1-c1ccc(C)cc1)OCC2 (stereo unspecified)
MIC (Klebsiella pneumoniae): 6.25 µg/mL (≈ 14.6 µM) | MIC (Pseudomonas aeruginosa): 6.25 µg/mL (≈ 14.6 µM) | MIC (Staphylococcus aureus): 6.25 µg/mL (≈ 14.6 µM) | MIC (Escherichia coli): 6.25 µg/mL (≈ 14.6 µM)

NC[C@@H]1O[C@H](C23CC4CC(CC(C4)C2)C3)Cc2c1ccc(O)c2O
Ki (D(1A) dopamine receptor): 0.0039 µM | Ki [19]: 1.86 µM

COc1cc(O)c(C)c2c1[C@H](O)O[C@@H](C)C2
inhibition at 10 µg/mL (L5178Y): 40.4%

COC1(C)Cc2c(C=O)c(O)c(Cc3c(O)c(C=O)c4c(c3O)COC(C)(OC)C4)c(O)c2CO1 (stereo unspecified)
inhibition (Acetylcholinesterase [17]): 53%

Clc1ccc2oc(SCC3OCCc4ccccc43)nc2c1 (stereo unspecified)
IC50 (KB): 6.1 µg/mL (≈ 18.4 µM)

CCCNCC(O)CC/N=C1\COCc2c1ccc(OC)c2OC (stereo unspecified)
inhibition [20]: 62.9%

COc1cc2c(cc1OC)C1CNCC(C2)O1 (stereo unspecified)
Activity [7]: 93%

Oc1ccc2c(c1)OCC21Cc2cc(O)c(O)cc2C(O)O1 (stereo unspecified)
IC50 [21]: 78.2 µM | IC50 [22]: 33.3 µM | IC50 [23]: 33.3 µM

COc1cc(O)cc2c1C(=O)O[C@@H](C)C2
inhibition at 10 µg/mL (L5178Y): 13.7%

CC1=Cc2c(C=O)c(O)c(Cc3c(O)c(C=O)c4c(c3O)COC(C)=C4)c(O)c2CO1
inhibition (Acetylcholinesterase [17]): 46%

COc1cc(O)c(C)c2c1[C@@H](OC)O[C@@H](C)C2
inhibition at 100 µg/mL (Lasiodiplodia theobromae): 76%

CC(CC1OCCc2ccccc21)NCCc1ccccc1 (stereo unspecified)
inhibition in vivo at 20 mg/kg (Rattus norvegicus [1]): 71.3%

CC12Cc3cc4c(cc3C(c3ccc(N)cc3)(OCO1)O2)OCO4 (stereo unspecified)
inhibition at 100 µM (NCI-H460): 86%

C[C@H]1Cc2cc3c(cc2[C@H](c2ccc(N)cc2)O1)OCO3
inhibition at 100 µM (NCI-H460): 67%

CN/C(=N\CCSCc1nc[nH]c1C)NC#N [CIMETIDINE]
inhibition in vivo at 20 mg/kg (Rattus norvegicus [1]): 51.6%

COc1cc(O)c(C)c2c1CO[C@@H](C)[C@@H]2O
inhibition at 10 µg/mL (L5178Y): 26.2%

COc1cc(O)c(C)c2c1C(=O)O[C@@H](C)C2
inhibition at 10 µg/mL (L5178Y): 59.5%

COC1(C)Cc2c(C=O)c(O)c(C)c(O)c2CO1 (stereo unspecified)
inhibition (Acetylcholinesterase [17]): -1%

COC1=CC(=O)C(C)=C2C[C@H](C)OC=C12
inhibition at 100 µg/mL (Lasiodiplodia theobromae): 69%

CC1=Cc2c(C=O)c(O)c(C)c(O)c2CO1
inhibition (Acetylcholinesterase [17]): -2%

O=C1OCC2(CCN(CCc3ccccc3)CC2)c2ccccc21
ED50 (Mus musculus [3]): 60 mg/kg | inhibition in vivo at 500 µM (Rattus norvegicus [5]): 94%
